According to patent US20170280722A1, “COMPOSITIONS AND METHODS FOR CONTROL OF SAND FLIES AND OTHER BLOOD SUCKING INSECTS” (GENESIS LABORATORIES, INC., priority 2010, published 2017):

Legend:
[1] = system: P. argentipes first instar larvae; experiment: Larval bioassay with feces of fipronil treated B. bengalensis; assay type: in vivo; conditions: for Mean ± SEM survival (days) of P. argentipes larvae during exposure to treated feces D-1 / Mean ± SEM survival (days) of P. argentipes larvae during exposure to treated feces D-5 / Mean ± SEM survival (days) of P. argentipes larvae during exposure to treated feces D-10 / Mean ± SEM survival (days) of P. argentipes larvae during exposure to treated feces D-20: B. bengalensis; for Mean ± SEM survival (days) of P. argentipes larvae during exposure to treated feces D-1: feces 1 day post-treatment; for Mean ± SEM survival (days) of P. argentipes larvae during exposure to treated feces D-5: feces 5 days post-treatment; for Mean ± SEM survival (days) of P. argentipes larvae during exposure to treated feces D-10: feces 10 days post-treatment; for Mean ± SEM survival (days) of P. argentipes larvae during exposure to treated feces D-20: feces 20 days post-treatment
Protocol: (§1) The B. bengalensis fipronil study was conducted in two portions. In the first of the two segments, three randomly selected B. bengalensis were offered a fipronil (250 ppm) treated diet at 25 g daily. One rat served as control and was fed an untreated diet. In the second portion of the study, the remaining animals were randomly divided into two groups of two. Two individuals in the first group were offered 25 g of 100 ppm fipronil-treated feed each and two rats in the second group were each offered 25 g of 50 ppm fipronil-treated diet. One rat served as control and was fed an untreated diet.
(§2) Test animals were provided treated feed for two consecutive days. Diets were prepared by utilizing locally available poultry feed treated with technical grade fipronil to predetermined concentrations. Consumption was calculated daily, feed refilled to a predetermined level of 25 g, and feces cleared. At the end of the second day, treated feed was cleared, final consumption weighed, and feed replaced with untreated locally available poultry feed. Feces were collected, noted as day-1 post-treatment and properly stored for use in assays. Observation of test animals continued for twenty days post-treatment, with additional collection of feces for testing conducted 5, 10, and 20 days post-treatment. On days when fecal collection occurred, all newspaper/bedding was replaced at 0800 hours and feces collected at the end of the day for preservation. Collected feces were dried overnight at approximately 40° C., ground into a fine powder with a pestle and mortar and frozen at −20° C. until larval bioassays were initiated.
Larval bioassay jars were prepared using 48 mm, 100 g round Dibbi jars (Pearlpet, Pearl Polymers LTD., New Delhi, India). Jars were prepared by burning three small holes into the bottom of the container with a soldering iron. A thin layer (approximately 5 mm) of plaster of Paris was cast on the bottom and wetted to ensure humidity and softening of the test diet. To simplify mortality counts, the plaster was quartered, and each quadrant numbered one through four, using an ultra fine black marker. The lids of the jars were punctured with 15-20 small holes using a heated 24-gauge hypodermic needle.
Each bioassay jar was loaded with ten one to two day old first instar P. argentipes larvae. Approximately 5 mg treated feces were sprinkled evenly over the plaster. Larval bioassay samples were maintained in a controlled environment at approximately 24° C. with relative humidity maintained at approximately 80% through daily moistening of paper towels underneath the jars. Any observed mold or mites were removed during each day's observation. Each bioassay group included one control jar with larvae provided standard larval food consisting of rabbit feed, rabbit pellets, and dried chicken blood which were mixed, dried, composted, and crushed. Mortality counts of larvae were conducted every 24 hours post-exposure until 100% mortality or pupation was observed. Larvae were considered dead if no physical response was observed within 15 seconds of light stimulation with a blunt probe.

[2] = system: adult P. argentipes; experiment: Adult sand fly bioassay, bloodfeeding on fipronil treated B. bengalensis; assay type: in vivo; conditions: for Time after 1 hour exposure to 100% mortality of adult P. argentipes: bloodfeeding 20 days after treatment; for Adult sand fly mortality: across treatment groups
Protocol: as §1, §2
Adult sand fly bioassays were conducted 1, 5, 10 and 20 days post feed-through treatment of B. bengalensis. B. bengalensis were anesthetized with 15 units of ketamine (KetaJet 50, SterFil Laboratories Pvt. Ltd., Ankleshwar, India) via intramuscular injection. The belly of each rat was shaved using an electric razor and a mesh covered plastic capsule (20 mm diameter, 25 mm height) containing 20 adult female and 5 adult male P. argentipes was affixed to the shaved area with medical tape. The capsules had about 10 small holes burned into the top with a heated 24 gauge needle. Capsules remained in place for one hour, covered with a light cloth to maintain warmth and reduce light. At the end of one hour, the capsules were removed and observations for mortality conducted immediately, at 12 hours post-feeding, and every 24 hours thereafter for up to 5 days post-exposure. Partially fed sand flies were included in analyses as “bloodfed” specimens. Unfed sand flies were removed, and bloodfed sand flies were observed collectively by treatment group.

N#Cc1nn(-c2c(Cl)cc(C(F)(F)F)cc2Cl)c(N)c1[S+]([O-])C(F)(F)F (centres unmarked) [fipronil]
Mean ± SEM survival (days) of P. argentipes larvae during exposure to treated feces D-1 ([1]; 50 ppm): 2.66 ± 0.18 days
Mean ± SEM survival (days) of P. argentipes larvae during exposure to treated feces D-5 ([1]; 50 ppm): 4.03 ± 0.27 days
Mean ± SEM survival (days) of P. argentipes larvae during exposure to treated feces D-10 ([1]; 50 ppm): 4.06 ± 0.29 days
Mean ± SEM survival (days) of P. argentipes larvae during exposure to treated feces D-20 ([1]; 50 ppm): 6.36 ± 0.36 days
Mean ± SEM survival (days) of P. argentipes larvae during exposure to treated feces D-1 ([1]; 100 ppm): 2.23 ± 0.11 days
Mean ± SEM survival (days) of P. argentipes larvae during exposure to treated feces D-5 ([1]; 100 ppm): 3.73 ± 0.23 days
Mean ± SEM survival (days) of P. argentipes larvae during exposure to treated feces D-10 ([1]; 100 ppm): 3.70 ± 0.16 days
Mean ± SEM survival (days) of P. argentipes larvae during exposure to treated feces D-20 ([1]; 100 ppm): 3.82 ± 0.21 days
Mean ± SEM survival (days) of P. argentipes larvae during exposure to treated feces D-1 ([1]; 250 ppm): 3.37 ± 0.20 days
Mean ± SEM survival (days) of P. argentipes larvae during exposure to treated feces D-5 ([1]; 250 ppm): 5.13 ± 0.27 days
Mean ± SEM survival (days) of P. argentipes larvae during exposure to treated feces D-10 ([1]; 250 ppm): 2.28 ± 0.10 days
Mean ± SEM survival (days) of P. argentipes larvae during exposure to treated feces D-20 ([1]; 250 ppm): 2.20 ± 0.10 days
Days of exposure to achieve 100% mortality ([1]; feces 5 days after treatment, 50 ppm): 7 days
Larval mortality ([1]; feces 5 days after treatment, 50 ppm, after 2 days of exposure): 23%
Days of exposure to achieve 100% mortality ([1]; feces 5 days after treatment, 100 ppm): 7 days
Larval mortality ([1]; feces 5 days after treatment, 100 ppm, after 2 days of exposure): 22%
Days of exposure to achieve 100% mortality ([1]; feces 5 days after treatment, 250 ppm): 8 days
Larval mortality ([1]; feces 5 days after treatment, 250 ppm, after 3 days of exposure): 23%
Days of exposure to achieve 100% mortality ([1]; feces 10 days after treatment, 50 ppm): 9 days
Larval mortality ([1]; feces 10 days after treatment, 50 ppm, after 2 days of exposure): 16%
Larval mortality ([1]; feces 10 days after treatment, 50 ppm, after 6 days of exposure): 95%
Days of exposure to achieve 100% mortality ([1]; feces 10 days after treatment, 100 ppm): 5 days
Larval mortality ([1]; feces 10 days after treatment, 100 ppm, after 2 days of exposure): 6%
Days of exposure to achieve 100% mortality ([1]; feces 10 days after treatment, 250 ppm): 4 days
Larval mortality ([1]; feces 10 days after treatment, 250 ppm, after 2 days of exposure): 78%
Days of exposure to achieve 100% mortality ([1]; feces 20 days after treatment, 50 ppm): 10 days
Days of exposure to achieve 100% mortality ([1]; feces 20 days after treatment, 100 ppm): 6 days
Larval mortality ([1]; feces 20 days after treatment, 100 ppm (so in the source), after 3 days of exposure): 7%
Larval mortality ([1]; feces 20 days after treatment, 100 ppm, after 2 days of exposure): 14%
Days of exposure to achieve 100% mortality ([1]; feces 20 days after treatment, 250 ppm): 4 days
Larval mortality ([1]; feces 20 days after treatment, 250 ppm, after 2 days of exposure): 85%
Knockdown of larvae ([1]; feces collected 20 days after the rodents were treated): Quick knockdown
Days of exposure to achieve 100% mortality ([1]; feces day 1 post-treatment, 50 ppm): 5 days
Larval mortality ([1]; feces day 1 post-treatment, 50 ppm, after 1 day of exposure): 4%
Days of exposure to achieve 100% mortality ([1]; feces day 1 post-treatment, 100 ppm): 4 days
Larval mortality ([1]; feces day 1 post-treatment, 100 ppm, after 1 day of exposure): 8%
Days of exposure to achieve 100% mortality ([1]; feces day 1 post-treatment, 250 ppm): 6 days
Larval mortality ([1]; feces day 1 post-treatment, 250 ppm, after 2 days of exposure): 18%
Mortality of bloodfeeding adult P. argentipes ([2]; bloodfed on rodents treated as much as 20 days previously, all treatment levels): 100%
Time after 1 hour exposure to 100% mortality of adult P. argentipes ([2]; 50 ppm): 5 days
Time after 1 hour exposure to 100% mortality of adult P. argentipes ([2]; 100 ppm): 3 days
Time after 1 hour exposure to 100% mortality of adult P. argentipes ([2]; 250 ppm): 4 days
Adult sand fly mortality ([2]; bloodfeeding on rodents 1 day after treatment): 100%
Adult sand fly mortality ([2]; bloodfeeding on rodents 5 days after treatment): 100%
Time to death of adult sand flies ([2]; day 1, all treatment groups (50 ppm, 100 ppm, and 250 ppm)): dead by the end of the one hour exposure period
Time to 100% mortality of adult sand flies ([2]; day 5, 50 ppm treatment group): 24 h
Time to death of adult sand flies ([2]; day 5, 250 and 100 ppm treatment groups): dead by the end of the one hour exposure period
